In this test the target is T1, mGluR4 (HEK293T-hmGluR4 cells) (Homo sapiens, UniProt Q14833).
T1 construct: host or cells: HEK293T
Nature of the test: HEK-293 mGluR4 cells cAMP assay with EC20 L-Glutamate (HTRF). To be noted: positive allosteric activity at EC20 L-Glutamate, 10 μM Forskolin, cAMP HTRF readout, read-out: hrmGluR4/HEK293T-hmGluR4 (EC50). It counts as cell-based. As for the experimental part: HEK-293 mGluR4 cells cAMP assay with EC20 L-Glutamate
Using mGluR4 suspension cell format, 10 μM Forskolin (final conc.) used to induce the production of cAMP.
Test the positive allosteric activity of the compounds of the invention at EC20 (2.3 μM for mGluR4 and 4.3 μM for mGluR6) L-Glutamate,
cAMP dymanic2 kit is intended for the direct quantitative determination of cAMP and its principle is based on HTRF technology.
Cells: HEK293T mGluR4 cells from Multispan, cat# C1191a lot# C1191a-040910 Culture Media: DMEM+GlutaMAX1+10% dialyzed FBS, 100 mM Sodium Pyruvate, 1 ug/ml puromycin.
Glutamine Starvation Media: DMEM without GlutaMax for plating the cells (glutamine starvation overnight). DMEM high Glucose, without phenol red, glutamine, or sodium pyruvate+10% dialyzed FBS, 100 mM Sodium Pyruvate, 1 ug/ml puromycin, 10 mM Hepes.
Cell Preparation: split cells at 80%-90% confluence. The following day, rinse the cells with DMEM without GlutaMax and change to Glutamine Starvation Media. Incubate overnight.
Prepare compound plate: Perform compound serial dilution (uses Matrix 4341 plate), using the Bravo liquid handling platform protocol (compound serial dilution) which adds DMSO to columns 1-24 (except cols. 3 and 13). Serial dilute compounds located in columns 3 and 13 at a 1:3 ratio; 10 points (10 ul of 3 mM compound into 20 ul DMSO). Use the Bravo liquid handling platform to transfer 1 ul from the serial dilution plate into Matrix 4314 plate to create stamp plates.
Dilute 20 mM Forskolin (in DMSO) stock solution in HBSS buffer to make a 20 uM solution (forskolin buffer; 2× solution). To the forskolin buffer, add glutamate to a concentration of 8 uM (compound dilution buffer; 2×EC20 glutamate and forskolin).
Using a multidrop, add 50 ul/well of compound dilution buffer to columns 1-22 of the 2 ul compound stamp plate. Columns 23 and 24 receive forskolin buffer containing 400 uM glutamate (EC100 glutamate; 2× solution). Columns 1 and 2 receive compound dilution buffer containing EC20 glutamate, which is the basal control. Add a glutamate dose response to row P of compound plate. Prepare the dose response by serial diluting glutamate at a 1:3 ratio in forskolin buffer starting at 2 mM glutamate (2×). Dilute the glutamate 9 times and transfer to compound plate.
Harvest cells: Rinse cells with pre-warmed HBSS-10 mM HEPES (without Ca Mg) and dissociate the cells from the flask with versene. Centrifuge the cells, remove the supernatant and suspend in pre-warmed HBSS+10 mM Hepes. Count the cells and centrifuge. Remove the supernatant and suspend the cells in HBSS+Hepes (with Ca Mg) at a density of 400,000 cells/ml.
Dispense 5 ul from the diluted compound plate into Greiner low volume cell plate using the Bravo liquid handling platform. Using a Multidrop with the small tubing cassette, dispense 5 ul of cells (2000 cells/well) onto the compounds contained in the low volume plates. Incubate the cells at 37° C., 5% CO2 for 30 minutes in the incubator.
Prepare cAMP-d2 and anti-cAMP-Crytate according to the instructions for the two step assay (see Cisbio manual) and add 10 ul of the mixed reagent to each well of the assay plate using the Multidrop. Incubate at room temperature for 60 minutes and read on the Envision plate reader using the mGluR low volume cAMP HTRF 384 well protocol. The readout is the calculated fluorescence ratio ([…]*10000).
(cAMP levels reflect the balance of adenylyl cyclase and phosphodiesterase activity.)

pEC50: −log10 of the molar value.

T1 sequence (Q14833 33-912): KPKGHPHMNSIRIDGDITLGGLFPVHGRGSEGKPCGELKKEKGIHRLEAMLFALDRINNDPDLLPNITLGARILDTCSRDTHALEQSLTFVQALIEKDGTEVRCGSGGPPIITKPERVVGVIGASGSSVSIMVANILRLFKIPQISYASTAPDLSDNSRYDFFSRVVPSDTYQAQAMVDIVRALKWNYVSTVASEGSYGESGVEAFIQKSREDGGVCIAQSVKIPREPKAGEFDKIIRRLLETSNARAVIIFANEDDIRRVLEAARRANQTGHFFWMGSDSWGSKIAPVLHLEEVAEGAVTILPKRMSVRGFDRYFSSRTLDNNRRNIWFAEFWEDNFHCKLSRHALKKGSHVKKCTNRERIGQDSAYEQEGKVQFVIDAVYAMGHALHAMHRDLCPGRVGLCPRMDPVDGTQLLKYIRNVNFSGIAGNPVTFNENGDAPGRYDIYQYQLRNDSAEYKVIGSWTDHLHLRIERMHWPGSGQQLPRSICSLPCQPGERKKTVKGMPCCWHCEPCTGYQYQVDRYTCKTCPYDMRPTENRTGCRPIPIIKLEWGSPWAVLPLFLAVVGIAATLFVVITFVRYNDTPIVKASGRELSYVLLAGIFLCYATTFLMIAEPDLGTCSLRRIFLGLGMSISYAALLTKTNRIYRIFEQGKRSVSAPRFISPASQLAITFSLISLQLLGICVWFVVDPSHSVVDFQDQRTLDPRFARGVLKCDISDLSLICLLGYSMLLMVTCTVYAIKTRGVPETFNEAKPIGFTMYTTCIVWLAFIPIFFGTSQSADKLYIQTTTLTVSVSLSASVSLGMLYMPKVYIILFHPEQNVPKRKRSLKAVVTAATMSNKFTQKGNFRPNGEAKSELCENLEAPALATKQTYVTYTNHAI

Turning to `C(#Cc1ccnc2ccccc12)c1ccccc1` [Compound 1, 4-Phenylethynyl-quinoline], the pEC50 was above 6.00.
Turning to `Fc1cccc(C#Cc2ccnc3ccccc23)c1` [Compound 2, 4-(3-Fluoro-phenylethynyl)-quinoline], the pEC50 was above 6.00.
In the case of `C(#Cc1ccnc2ccccc12)c1ccsc1` [Compound 3, 4-Thiophen-3-ylethynyl-quinoline] it was above 6.00.
Turning to `Fc1ccc(C#Cc2ccnc3ccccc23)cc1` [Compound 4, 4-(4-Fluoro-phenylethynyl)-quinoline], the pEC50 was above 6.00.
The value for `Fc1ccc(C#Cc2ccnc3ccccc23)cc1F` [Compound 5, 4-(3,4-Difluoro-phenylethynyl)-quinoline] was above 6.00; that for `C(#Cc1ccnc2ccccc12)c1cccs1` [Compound 6, 4-Thiophen-2-ylethynyl-quinoline] was 5.00 to 6.00.
The value for `Fc1ccccc1C#Cc1ccnc2ccccc12` [Compound 7, 4-(2-Fluoro-phenylethynyl)-quinoline] was 5.00 to 6.00; that for `Fc1ccccc1C#Cc1ccnc2[nH]ccc12` [Compound 8, 4-(2-Fluoro-phenylethynyl)-1H-pyrrolo[2,3-b]pyridine] was 5.00 to 6.00.
In the case of `Clc1cccc(C#Cc2ccnc3ccccc23)c1` [Compound 9, 4-(3-Chloro-phenylethynyl)-quinoline] it was 5.00 to 6.00.

Values taken from US9879004B2, “Substituted acetylene derivatives and their use as positive allosteric modulators of mGluR4” (Merck Patent GmbH, priority 2013, dated 2018).
